Source: patent US7511123B2, “Immuno-interactive fragments of the alpha-C subunit of inhibin” (Prince Henry's Institute of Medical Research, priority 1999, dated 2009)

Legend:
[1] = tested on: As #1989; assay: RIA (Assay 2): competition with iodinated inhibin for As #1989; format: binding, rabbit; details: for As#1989 ED50: biotinylated peptides, 50% fall in binding of iodinated inhibin
Description: (§1) This assay was used to determine which peptides compete with iodinated 30 kDa inhibin for As #41, #128 and #1989 (used in the original inhibin RIA, Lapphorn et al., 1989, supra) in a RIA format. This assay identifies those peptides that bind to inhibin-binding antibodies in the antiserum and provides a stricter affinity and specificity assessment in identifying the appropriate epitopes than that found with Assay 1. The competition between peptide and hr-inhibin (used as the standard) was assessed from their ED50 values. The RIA consisted of the competition of iodinated inhibin and either hr-inhibin reference preparation, individual peptides or pools from the 4 peptide regions, with As #41, #128 and in some instances, As #1989. The peptides/inhibin/iodinated inhibin and antisera (at a prescribed dilution) were incubated overnight at 4° C. using standard methodologies. The antibody-bound iodinated inhibin was immunoprecipitated with the addition of an anti-sheep IgG serum raised in goats and the radioactivity was measured in a gamma counter. The concentration of peptide that gives a 50% fall in binding of iodinated inhibin (ED50) was determined and this value was used to give a measure of the affinity of the peptide for the antiserum. This methodology consisted of determining the ED50 of the peptide in the RIA using iodinated human recombinant inhibin as tracer with either As #41, As #128 or As #1989 and graded doses of either hr-inhibin or peptide as described in Example 2.

[2] = tested on: As #41; assay: RIA (Assay 2): competition with iodinated inhibin for As #41; format: binding, sheep; details: for As#41 ED50: biotinylated peptides, 50% fall in binding of iodinated inhibin
Description: as §1

[3] = tested on: As #128; assay: RIA (Assay 2): competition with iodinated inhibin for As #128; format: binding, sheep; details: for As#128 ED50: biotinylated peptides, 50% fall in binding of iodinated inhibin
Description: as §1

[4] = tested on: As #128; assay: Solid phase assay (Assay 1): biotinylated peptides binding to As #128; set-up: species or system sheep; key: +++++ major contribution; + minor contribution; details: relative contribution
Protocol: This assay is a broad screen of the binding of the 31 biotinylated peptides to As #41 and #128 as recommended by Chiron Mimotopes.
The biotinylated peptides were initially bound to streptavidin-coated 96-well plates (2 hours at room temperature), antiserum #41 or #128 was then added (2 hours room temperature) to bind to the peptides. Detection of antiserum binding was assessed by a further incubation with an anti-ovine IgG serum labeled with the enzyme, horseradish peroxidase. The enzyme activity was assessed by conversion of a colorless substrate to a colored product that is detected in a spectrophotometer. The enzyme activity measured was proportional to the extent of the binding of the peptides.

[5] = tested on: As #128; assay: Competitive 2-site assay (Assay 3), approach (a); format: binding, sheep; set-up: key: +++++ major contribution; + minor contribution; details: relative contribution
Description: This assay was developed to establish the relative importance of the individual peptides and peptide pools (identified as epitopes in Assays 1 and 2) in the sandwich antibody format used in the IFMA with As #128 as capture antibody and As #41 as detection antibody. Two approaches (a and b) were considered, Approach (a) explores the cross-reaction of peptides with inhibin for the immobilized As #128 while Approach (b) assesses their cross-reaction with inhibin for As #41.
Approach (a). The biotinylated peptide pools and/or individual peptides at various concentrations, in combination with a fixed concentration of hr-inhibin, were incubated for 2 hours with As #128-coated plates. The plates were then washed to remove any unbound material. Iodinated As #41 was then added to bind to the bound hr-inhibin, the plates washed and the bound radioactivity was measured in a gamma counter. The counts measured were proportional to the amount of hr-inhibin bound to both antisera. The possibility that a peptide contained two epitopes capable of linking As #128 and #41 was assessed in the absence of added hr-inhibin.

[6] = tested on: PO#14 + PO#23-R1; assay: Cross-reaction of inhibin-related proteins in 14 + 23-R1 ELISA; format: binding, mouse; details: relative to rh inhibin A standard (=100); average of two experiments
Protocol: (§2) An ELISA system using 96-well microtiter plates was developed consisting of one alpha subunit antibody as coating antibody and an alkaline phosphatase-linked second antibody as label. The alkaline phosphatase activity was amplified using an ELISA amplification kit (Gibco, Life Technologies, Rockville Md., USA). The plate was initially coated with monoclonal antibody at 2 micrograms/well in 0.1 M bicarbonate buffer pH 9.4 overnight at room temperature and blocked with 50 mM TRIS/HCl, 1% bovine serum albumin (BSA) pH 7.4.
(§3) The ELISAs in application to non-serum samples consisted of 100 microliters sample or recombinant human (rh) inhibin A standard (provided by National Institute of Biological Standards and Control, Potters Bar, Herts, UK) in assay buffer (100 mM TRIS/HCl, 154 mM NaCl, 5% Triton-X-100, 10% BSA pH, 7.5) and 100 microliters assay buffer. In the assay of serum, the inhibin A standard (100 microliters) was diluted in assay buffer. Inhibin-free serum (100 microliters) was also added to make a total well volume of 200 microliters. The inhibin-free serum was obtained by incubating serum with an immobilized inhibin alpha subunit antibody. […] Serum samples were initially boiled in the presence of SDS (2% final concentration) and diluted 1:1 with assay buffer before adding 100 microliters to the wells. The inhibin-free serum and the SDS boiling steps were included to offset any potential matrix effects of serum known to affect other inhibin ELISAs although the need for these specific steps had not been assessed.
(§4) The plate was incubated with shaking overnight at room temperature. The wells were washed, and alkaline phosphatase (AP)-linked antibody added, incubated with shaking for 3 hours at room temperature and washed again. The substrate (NADPH, Gibco) was added and the plate incubated for 2 hours with shaking at room temperature. The amplifying enzymes (alcohol dehydrogenase and diaphorase, Gibco) were added and incubated for 5-15 min until appropriate color had developed. The plate was read at 490/630 nm on an ELISA plate reader.
(§5) The specificity of the ELISAs was assessed by determining the cross-reaction of inhibin-related proteins in the various ELISAs.
As a result of an initial characterization of these ELISAs (see below), a combination of PO#14+PO#23 as coating antibodies and AP linked-R1 antibody as tracer was also assessed and its characteristics are also presented in Table 11 and 12 and FIG. 10c.

[7] = tested on: PO#14-R1; assay: Cross-reaction of inhibin-related proteins in 14-R1 ELISA; format: binding, mouse; details: relative to rh inhibin A standard (=100); average of two experiments
Protocol: as §2, §3, §4, §5

[8] = tested on: PO#23-R1; assay: Cross-reaction of inhibin-related proteins in 23-R1 ELISA; format: binding, mouse; details: relative to rh inhibin A standard (=100); average of two experiments
Protocol: as §2, §3, §4, §5

[9] = non-biotinylated peptides, hr-inhibin A as standard

## SGSG VALNISFQELGWER [Peptide 11]
[1]
  As#1989 ED50: >2500 nM
[2]
  As#41 ED50: >10000 nM
[3]
  As#128 ED50: >10000 nM

## SGSG ELGWERWIVYPPSF [Peptide 13]
[1]
  As#1989 ED50: >2500 nM
[2]
  As#41 ED50: >10000 nM
[3]
  As#128 ED50: >10000 nM

## SGSG SFIFHYCHGGCGLH [Peptide 16]
[1]
  As#1989 ED50: >2500 nM
[2]
  As#41 ED50: >10000 nM
[3]
  As#128 ED50: >10000 nM

## SGSG ERWIVYPPSFIFHY [Peptide 14]
[1]
  As#1989 ED50: >2500 nM
[2]
  As#41 ED50: >10000 nM
[3]
  As#128 ED50: >10000 nM

## Hr-inhibin: human recombinant 30 kDa inhibin A [reference compound]
[1]; [9]
  ED50 values As#1989: 0.1 nM
[2]; [9]
  ED50 values As#41: 2 to 8000 nM
[3]; [9]
  ED50 values As#128: 2 nM

## SGSG NCHRVALNISFQEL [Peptide 10]
[1]
  As#1989 ED50: >2500 nM
[2]
  As#41 ED50: >10000 nM
[3]
  As#128 ED50: >10000 nM

## SGSG ISFQELGWERWIVY [Peptide 12]
[1]
  As#1989 ED50: >2500 nM
[2]
  As#41 ED50: >10000 nM
[3]
  As#128 ED50: >10000 nM

## SGSG LPVPGAPPTPAQPY [Peptide 21]
[1]
  As#1989 ED50: >2500 nM
[2]
  As#41 ED50: 1000 nM
[3]
  As#128 ED50: 156 nM

## SGSG PLHVRTTSDGGYSF [Peptide 29]
[1]
  As#1989 ED50: >2500 nM
[2]
  As#41 ED50: 5000 nM
[3]
  As#128 ED50: 156 nM

## SGSG AAHANCHRVALNIS [Peptide 9]
[1]
  As#1989 ED50: >2500 nM
[2]
  As#41 ED50: >10000 nM
[3]
  As#128 ED50: >10000 nM

## SGSG PEEPAAHANCHRVA [Peptide 8]
[1]
  As#1989 ED50: >2500 nM
[2]
  As#41 ED50: >10000 nM
[3]
  As#128 ED50: 4800 nM

## SGSG VYPPSFIFHYCHGG [Peptide 15]
[1]
  As#1989 ED50: >2500 nM
[2]
  As#41 ED50: >10000 nM
[3]
  As#128 ED50: >10000 nM

## SGSG GGCGLHIPPNLSLP [Peptide 18]
[1]
  As#1989 ED50: >2500 nM
[2]
  As#41 ED50: 1050 nM
[3]
  As#128 ED50: 60 nM
[4]
  #128 Antibody screen Assay 1: +
[5]
  #128 2-site competitive assay Assay 3: +

## SGSG LHIPPNLSLPVPGA [Peptide 19]
[1]
  As#1989 ED50: >2500 nM
[2]
  As#41 ED50: 2100 nM
[3]
  As#128 ED50: <10 nM
[4]
  #128 Antibody screen Assay 1: +
[5]
  #128 2-site competitive assay Assay 3: +

## SGSG HYCHGGCGLHIPPN [Peptide 17]
[1]
  As#1989 ED50: >2500 nM
[2]
  As#41 ED50: 1050 nM
[3]
  As#128 ED50: 10000 nM

## SGSG LQRPPEEPAAHANC [Peptide 7]
[1]
  As#1989 ED50: >2500 nM
[2]
  As#41 ED50: 1250 nM
[3]
  As#128 ED50: 1600 nM
[4]
  #128 Antibody screen Assay 1: +
[5]
  #128 2-site competitive assay Assay 3: +

## SGSG SFKYETVPNLLTQH [Peptide 32]
[1]
  As#1989 ED50: >2500 nM
[2]
  As#41 ED50: 290 nM
[3]
  As#128 ED50: 2500 nM

B1: Pro-(alpha)C: preparation provided as standard in Pro-(alpha)C ELISA by Oxford Bio-innovations Ltd, UK (protein)
chain: CQGLELARELVLAKVRALFLDALGPPAVTREGGDPGVRRLPRRHALGGFTHRGSEPEEEEDVSQAILFPATDASCEDKSAARGLAQEAEEGLFRYMFRPSQHTRSRQVTSAQLWFHTGLDRQGTAASNSSEPLLGLLALSPGGPVAVPMSLGHAPPHWAVLHLATSALSLLTHPVLVLLLRCPLCTCSARPEATPFLVAHTRTRPPSGGERARRSTPLMSWPWSPSALRLLQRPPEEPAAHANCHRVALNISFQELGWERWIVYPPSFIFHYCHGGCGLHIPPNLSLPVPGAPPTPAQPYSLLPGAQPCCAALPGTMRPLHVRTTSDGGYSFKYETVPNLLTQHCACI
[6]
  14 + 23-R1 ELISA specificity: 38.5
[7]
  14-R1 ELISA specificity: 98.5
[8]
  23-R1 ELSIA specificity: 41.5

B2: rh-activin A: recombinant human activin A (protein, UniProt P08476 311-426, looked up)
Inhibin beta A chain: GLECDGKVNICCKKQFFVSFKDIGWNDWIIAPSGYHANYCEGECPSHIAGTSGSSLSFHSTVINHYRMRGHSPFANLKSCCVPTKLRPMSMLYYDDGQNIIKKDIQNMIVEECGCS
[6]
  14 + 23-R1 ELISA specificity: <0.2
[7]
  14-R1 ELISA specificity: <0.2
[8]
  23-R1 ELSIA specificity: <0.2

B3: rh-inhibin B: recombinant human inhibin B (protein, UniProt P05111 233-366; P09529 293-407, looked up)
Inhibin alpha chain: STPLMSWPWSPSALRLLQRPPEEPAAHANCHRVALNISFQELGWERWIVYPPSFIFHYCHGGCGLHIPPNLSLPVPGAPPTPAQPYSLLPGAQPCCAALPGTMRPLHVRTTSDGGYSFKYETVPNLLTQHCACI
Inhibin beta B chain: GLECDGRTNLCCRQQFFIDFRLIGWNDWIIAPTGYYGNYCEGSCPAYLAGVPGSASSFHTAVVNQYRMRGLNPGTVNSCCIPTKLSTMSMLYFDDEYNIVKRDVPNMIVEECGCA
[6]
  14 + 23-R1 ELISA specificity: 138
[7]
  14-R1 ELISA specificity: 320
[8]
  23-R1 ELSIA specificity: 253
